Reference: patent US9175320B2, “Processes for the preparation of (R)-2-(7-4-cyclopentyl-3-(trifluoromethyl)benzyloxy)-1,2,3,4-tetrahydrocyclopenta[B]indol-3-yl)acetic acid and salts thereof” (ARENA PHARMACEUTICALS, INC., priority 2010, dated 2015)

What was measured:
S1P1 receptor = S1P1 receptor (Homo sapiens (Human), UniProt P21453); test: HTRF assay for direct cAMP measurement; type: cell-based; conditions: recombinant CHO-K1 cells stably transfected with S1P1
Text: CHO-K1 cells were obtained from ATCC® (Manassas, Va.; Catalog #CCL-61). […] The HTRF® assay has been used to determine EC50 values for S1P1 receptor agonists. Principle of the assay: HTRF® assay kit was purchased from Cisbio-US, Inc. (Bedford, Mass.; Catalog #62AM4PEC). The HTRF® assay supported by the kit is a competitive immunoassay between endogenous cAMP produced by the CHO-K1 cells and tracer cAMP labeled with the dye d2. The tracer binding is visualized by a monoclonal anti-cAMP antibody labeled with Cryptate. The specific signal (i.e., fluorescence resonance energy transfer, FRET) is inversely proportional to the concentration of unlabeled cAMP in the standard or sample. Standard curve: The fluorescence ratio (665 nm/620 nm) of the standards (0.17 to 712 nM cAMP) included in the assay was calculated and used to generate a cAMP standard curve according to the kit manufacturer's instructions. The fluorescence ratio of the samples (test compound or compound buffer) was calculated and used to deduce respective cAMP concentrations by reference to the cAMP standard curve. […] The plate was then further incubated at room temperature for 1 hour, after which the assay plate was read. Assay readout: HTRF® readout was accomplished using a PHERAstar (BMG LABTECH Inc., Durham, N.C.) or EnVision™ (PerkinElmer, Fremont Calif.) microplate reader.

BALB/c mice = test: Mouse Peripheral Lymphocyte Lowering (PLL) assay; type: in vivo; conditions: 1.00 mg/kg oral dose, 5 hours post-dose, male BALB/c mice, vs vehicle (FIG. 1)
Experimental: Animals: Male BALB/c mice (Charles River Laboratories, Wilmington, Mass.) were housed four per cage and maintained in a humidity-controlled (40 to 60%) and temperature-controlled (68 to 72° F.) facility on a 12 h:12 h light/dark cycle (lights on at 6:30 am) with free access to food (Harlan Teklad, Orange, Calif., Rodent Diet 8604) and water. Mice were allowed one week of habituation to the animal facility before testing. PLL Assay: […] Peripheral blood samples were collected at 5 hours post-dose. The mice were anesthetized with isoflurane and blood was collected via cardiac puncture. A complete cell count (CBC), including lymphocyte count, was obtained using a CELL-DYN® 3700 (Abbott Laboratories, Abbott Park, Ill.) instrument. Results are presented in FIG. 1, in which peripheral blood lymphocyte (PBL) count is shown for the 5 hour group.

Sprague-Dawley rats [1] = test: Rat Peripheral Lymphocyte Lowering (PLL) assay; type: in vivo; conditions: 1.00 mg/kg oral dose, 5 hours post-dose, male Sprague-Dawley rats, vs vehicle (FIG. 2)
Experimental: Animals: Male Sprague-Dawley rats (7 weeks of age at start of study) (Charles River Laboratories) were housed two per cage and maintained in a humidity-controlled (40-60%) and temperature-controlled (68-72° F.) facility on a 12 h: 12 h light/dark cycle (lights on at 6:30 am) with free access to food (Harlan Teklad, Orange, Calif., Rodent Diet 8604) and water. Rats were allowed one week of habituation to the animal facility before testing. PLL Assay: […] Peripheral blood samples were collected at 5 hours post-dose. Blood was collected via indwelling catheter. A complete cell count (CBC), including lymphocyte count, was obtained using a CELL-DYN® 3700 (Abbott Laboratories, Abbott Park, Ill.) instrument. Results are presented in FIG. 2, in which peripheral blood lymphocyte (PBL) count is shown for the 5 hour group.

Female Lewis rats = test: Collagen-induced arthritis rat model; type: in vivo; conditions: 0.3, 1 and 3 mg/kg p.o., q.d., day 0 through day 16 (FIG. 3)
Experimental: Female Lewis rats were used in this study. Acclimated animals were anesthetized with isoflurane and given the first collagen injection (day 0). On day 6, they were anesthetized again for the second collagen injection. Collagen was prepared by making a 4 mg/mL solution in 0.01N acetic acid. Equal volumes of collagen and incomplete Freund's adjuvant were emulsified by hand mixing until a bead of this material held its form when placed in water. Each animal received 300 μL of the mixture each time, spread over 3 subcutaneous sites on the back. Treatment (p.o., q.d., 5 mL/kg dosing volume) began on day 0 and continued through day 16 with vehicle or compounds given at 24 h intervals. Rats were weighed on days 0, 3, 6 and 9 through 17 and caliper measurements of the ankles taken on days 9 through 17.

C57BL/6 mice [2] = test: MOG-induced experimental autoimmune encephalomyelitis (EAE) in mice; type: in vivo, mouse; conditions: 0.3, 1 and 3 mg/kg orally once a day from day 3 until day 21 (FIG. 4)
Sprague-Dawley rats [3] = test: Cardiac telemetry in the rat (bradycardia assay); type: in vivo; conditions: oral, vehicle PEG400, heart rate measured over a 120 min period, vs vehicle
Experimental: Animals: Male Sprague-Dawley rats (250-300 g at time of surgery) were implanted by Charles River Laboratories (Wilmington, Mass.) with cardiac transmitting devices (Data Sciences PhysioTel C50-PXT) into the peritoneal space, with a pressure-sensing catheter inserted into the descending aorta. Rats are allowed at least one week to recover. Rats were housed in individual cages and maintained in a humidity-controlled (30-70%) and temperature-controlled (20-22° C.) facility on a 12 h:12 h light/dark cycle (lights on at 7:00 am) with free access to food (Harlan-Teklad, Orange, Calif., Rodent Diet 8604) and water. Rats were allowed one week of habituation to the animal facility before testing. Measurement of cardiovascular parameters: The implanted transmitting devices transmitted continuous measurements of blood pressure (systolic, diastolic, mean arterial, pulse), heart rate, body temperature, and motor activity in freely moving conscious animals. […] Telemetry recording occurred over a 21-h period, starting at noon and continuing until 9:00 am the following day. A maximum of eight rats were tested at a time, and the same eight rats were utilized for all treatment groups in a within-subject design. Drug treatment: […] A full study (vehicle+3 doses) required four separate testing sessions, which occur on Mondays-Tuesdays and Thursdays-Fridays. […]

[4] = Hale et al. 2004; cited from earlier work
S1P3 receptor = S1P3 receptor (Homo sapiens (Human), UniProt Q99500); conditions: due to agonism of the S1P3 receptor; cited from earlier work
[5] = test system: patients with multiple sclerosis; conditions: Phase II, relapsing-remitting multiple sclerosis; cited from earlier work
[6] = test system: dendritic cells infected with Francisella tularensis; conditions: Bar-Haim et al. 2008; cited from earlier work
[7] = short-term high dose; cited from earlier work
mice [8] = conditions: by reducing the number of mature osteoclasts attached to the bone surface; cited from earlier work
mice [9] = conditions: oral administration to mice; cited from earlier work
[10] = spared nerve injury model; cited from earlier work
mice [11] = conditions: murine; cited from earlier work
C57BL/6 mice [12] = conditions: prophylactic oral administration, 1 mg/kg, three times a week; cited from earlier work

S1P1 receptor, sequence (P21453 whole entry): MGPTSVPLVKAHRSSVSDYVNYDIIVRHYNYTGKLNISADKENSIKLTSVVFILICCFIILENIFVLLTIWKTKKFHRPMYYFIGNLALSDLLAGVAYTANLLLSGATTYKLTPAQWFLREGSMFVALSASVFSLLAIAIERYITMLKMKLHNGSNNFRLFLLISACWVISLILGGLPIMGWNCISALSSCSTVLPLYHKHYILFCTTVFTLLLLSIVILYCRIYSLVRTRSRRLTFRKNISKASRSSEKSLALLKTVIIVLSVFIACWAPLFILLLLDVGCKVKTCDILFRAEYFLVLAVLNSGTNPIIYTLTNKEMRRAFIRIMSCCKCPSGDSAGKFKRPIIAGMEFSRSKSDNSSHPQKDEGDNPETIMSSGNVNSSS
S1P3 receptor, sequence (Q99500 whole entry): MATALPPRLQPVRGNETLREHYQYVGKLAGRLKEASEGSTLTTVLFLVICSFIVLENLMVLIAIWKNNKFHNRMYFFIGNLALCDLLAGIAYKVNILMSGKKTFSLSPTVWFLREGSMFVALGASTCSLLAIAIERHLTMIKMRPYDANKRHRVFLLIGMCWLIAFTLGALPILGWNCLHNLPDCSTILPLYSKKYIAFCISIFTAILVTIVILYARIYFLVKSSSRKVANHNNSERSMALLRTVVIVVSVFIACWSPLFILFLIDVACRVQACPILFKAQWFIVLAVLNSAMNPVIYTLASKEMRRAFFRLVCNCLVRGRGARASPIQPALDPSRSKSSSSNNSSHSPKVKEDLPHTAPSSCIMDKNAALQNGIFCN

| Compound | S1P1 receptor agonism (decreased cAMP concentration) (S1P1 receptor) | EC50 (S1P1 receptor; n = 22) | peripheral blood lymphocyte (PBL) count lowering (BALB/c mice) | peripheral blood lymphocyte (PBL) count lowering (Sprague-Dawley rats [1]) | mean ankle diameter (Female Lewis rats) | severity of disease symptoms (clinical score) in EAE (C57BL/6 mice [2]) | heart rate (bradycardia) (Sprague-Dawley rats [3]) | induction of lymphopenia (PLL) [4] | adverse event in clinical trials (S1P3 receptor) | MRI lesions and clinical disease activity [5] | migration of infected dendritic cells to the mediastinal lymph node [6] | ocular infiltrates [7] | ovariectomy-induced osteoporosis (mice [8]) | VEGF-induced vascular permeability (mice [9]) | nociceptive behavior [10] | initiation of contact hypersensitivity (mice [11]) | development of EAMG (C57BL/6 mice [12]) |
| --- | --- | --- | --- | --- | --- | --- | --- | --- | --- | --- | --- | --- | --- | --- | --- | --- | --- |
| O=C(O)C[C@H]1CCc2c1[nH]c1ccc(OCc3ccc(C4CCCC4)c(C(F)(F)F)c3)cc21 [(R)-2-(7-(4-cyclopentyl-3-(trifluoromethyl)benzyloxy)-1,2,3,4-tetrahydrocyclopenta[b]indol-3-yl)acetic acid] | agonist of the S1P1 receptor | 0.102 nM | exhibited activity for inducing PBL lowering (lymphopenia) | exhibited activity for inducing PBL lowering (lymphopenia) | exhibited activity for reducing mean ankle diameter | exhibited activity in the mouse EAE assay | no or substantially no reduction of heart rate |  |  |  |  |  |  |  |  |  |  |
| CCCCCCCCc1ccc(CCC(N)(CO)CO)cc1 [FTY720] |  |  |  |  |  |  |  | rapidly and reversibly induce lymphopenia | transient asymptomatic bradycardia | reduce the number of lesions detected by magnetic resonance imaging (MRI) and clinical disease activity | impair migration of dendritic cells infected with Francisella tularensis to the mediastinal lymph node | rapidly reduced ocular infiltrates | relieved ovariectomy-induced osteoporosis | potently blocked VEGF-induced vascular permeability | reduce the nociceptive behavior | impair initiation of murine contact hypersensitivity (CHS) | completely prevented the development of experimental autoimmune myasthenia gravis (EAMG) |
